Entries after “also recorded” stand apart in the source; their conditions may differ.
Assays:
[1] = test system: rat hippocampal neurons expressing P301L mutant eGFP-tau; test: P301L mutant tau mislocalization to dendritic spines, kinase inhibitor treatment; format: cell-based
Text: FIG. 5A. […] FIG. 5B. […] FIG. 5C. […] FIG. 5D. […] FIG. 5E.

[2] = test system: primary cultured rat hippocampal neurons; test: Cell death of cultured neurons under kinase inhibitor treatment; format: cell-based; conditions: Sprague-Dawley, 24 h
Protocol: Roscovitine and CHIR99021 were purchased from Sigma-Aldrich (St. Louis, Mo.) and were diluted in DMSO to four 1000× concentration aliquots for ultimate concentrations in neurobasal medium of […]. Primary cultured rat hippocampal neurons transfected with dsRed and eGFP-P301L-tau were treated with one of four 1000× aliquots or DMSO vehicle on DIV 20-22. Treated cells were incubated for 24 hours prior to imaging on DIV 21-23. Cell death was visually assessed under differential interference contrast (DIC) for decreased cell density, lost soma adhesion, gross qualitative neurite retraction. If evidence of cell death was observed under DIC, cells were fixed in 4% sucrose and 4% paraformaldehyde in PBS and stained with 300 nM DAPI in PBS. DAPI stained cells were analyzed under fluorescent microscopy for nuclear pyknosis and karyorrhexis; dsRed expressing cells were analyzed for spine loss. If no cell death was evident under DIC, live fluorescent images were acquired and analyzed as above.

[3] = test system: cultured G2-3 (A53T αS) mouse hippocampal neurons expressing eGFP-WT tau; test: A53T αS-dependent mislocalization of tau to dendritic spines, GSK3β inhibition; format: cell-based; conditions: 3 μM, applied at 16 DIV, imaged at 21 DIV
[4] = test system: cultured rat hippocampal neurons expressing A53T αS; test: AMPA receptor mEPSCs in neurons transfected with A53T αS; format: cell-based; conditions: GSK3β inhibition with CHIR
[5] = test system: low density hippocampal neurons from G2-3 mice; test: GluA1 surface expression in dendritic spines of G2-3 neurons; format: cell-based, mouse
Text: FIG. 21A. Photomicrographs of neurons from G2-3 mice and their TgNg littermates without (top two panels) and with treatment of CHIR-99021 (bottom two panels). As previously described (Liao et al. 1999 Nature Neuroscience 2(1): 37-43), live neurons were stained for N-GluA1 antibodies (green), fixed, permeablized, and stained for PSD-95 (red). Arrows indicate tightly clustered surface N-GluA1 colocalized with PSD-95, whereas weak, non-specific N-GluR1 immunoreactivity appeared along the dendritic shafts as diffuse staining rather than distinct clusters in G2-3 neurons (arrow heads). The diffuse staining is likely due to the presence of extrasynaptic AMPA receptors (Newpher and Ehlers 2008 Neuron 58: 472-97). […] Scale bar: […]. FIG. 21B. GluA1 surface fluorescence in PSD-95 immunoreactive spines was normalized to dendritic fluorescence. […] For all n=8; data are expressed as mean±s.e.m. […]
Cultured neurons were fixed and permeabilized successively with 4% paraformaldehyde, 100% methanol, and 0.2% Triton X-100 (Lin et al. 2009 Neuropsychopharmacology 34(9):2097-111). […] In FIG. 4A-FIG. 4B, the number of synaptophysin clusters and their colocalization with boutons of neurons expressing eGFP or eGFP-labeled αS were automatically counted using ImageJ software (available on the world wide web at imagej.nih.gov/ij/). […] DAPI stained nuclei were manually counted from wide-field photomicrographs. […]

[6] = test system: neurons expressing GFP-tagged P301L-tau; test: Missorting of tau to dendritic spines in neurons expressing P301L mutant tau, peptide treatment; format: cell-based, rat; conditions: for proportion of dendritic spines that contain tau (tau mis-sorting caused by P301L mutation): 21 DIV neurons, GFP-tagged P301L-tau, peptide 1 μM for 3 days
Protocol: FIG. 10A-FIG. 10B show missorting of tau to dendritic spines caused by P301L mutation is blocked by Peptide 1 and Peptide 2 but not Peptide 3. FIG. 10A 21 days in vitro (DIV) neurons expressing DsRed (left panels) and GFP-tagged P301L-tau (middle panels) were treated with AP peptide (Peptide 2; 1 μM) for 3 days (top panels: untreated; bottom panels: treated).
Transfected cells were continually bathed in neurobasal media and were passively perfused with medical-grade 95% O2-5% CO2. Micrographs were taken on a Nikon epifluorescent inverted microscope with 60× oil lens with a computerized focus motor at DIV 21-23. All digital images were processed using METAMORPH Imaging System (Universal Imaging Corporation, Molecular Devices, San Jose, Calif.). Images were taken as 15 plane stacks at 0.5 micron increments, processed by deconvolution to the nearest planes, and averaged against other stacked images. A dendritic spine was defined as having an expanded head diameter, greater than 50% larger in diameter than the neck. The number of spines per neuron were counted and normalized to a […] length of dendritic shaft. […]

[7] = test system: rat hippocampal neurons expressing GFP-tagged wild-type human tau; test: Mislocalization of tau to dendritic spines caused by Aβ oligomers; format: cell-based; conditions: Aβ oligomers 0.1 μM with AP peptide 1 μM, 3 days
Protocol: FIG. 11A Cultured 21 days in vitro (DIV) rat hippocampal neurons expressing DsRed (left panels) and GFP-tagged wild-type human tau (middle panels) were untreated (top panels), treated with Aβ oligomers alone (0.1 μM) (middle panels), or treated with Aβ oligomers (0.1 μM) with AP peptide (1 μM) (bottom panels) for 3 days.

[8] = test system: rat hippocampal neurons expressing GFP-WT-tau; test: Tau missorting to dendritic spines in mechanically injured (stretched) neurons, TBI model; format: cell-based; conditions: 10 stretches, 2% strain; AP peptide 1 μM
Protocol: FIG. 12A. Representative live images of cultured rat hippocampal neurons that had been co-transfected with plasmids of DsRed (left lane; a red fluorescence protein to label dendritic spines) and green fluorescence protein (GFP)-tagged wild-type tau (GFP-WT-tau; middle lane) with overlay images on the right lane 2 days after the delivery of a mechanical protocol. The neurons were cultured on a plastic membrane and were stretched by a computer-controlled mechanical device, as described in Example 2 (10 stretches; 2% mechanical strain; 1 second interval between stretches) in 21 days in vitro (DIV). Arrows denote dendritic spines that contain tau and triangles denote dendritic spines devoid of tau. FIG. 12B. […] FIG. 12C. […] ANOVA was used in FIG. 12B and FIG. 12C; *** indicates p<0.001.
In a tauopathy model for traumatic brain injuries (TBI) based on the model of Hemphill et al. 2011 PLoS One. 6(7):e2289), mechanical injuries to neurons induce tau missorting to dendritic spines (FIG. 12). The methods of Hemphill et al. were modified such that plasmids encoding GFP-tagged tau were introduced into neurons, allowing detection of tau abnormalities as well as tau-mediated synaptic deficits. Briefly, neurons were plated onto medical grade silicone elastomer membranes (0.010 inch NRV, Specialty Manufacturing, Inc., Saginaw, Mich.) and glued inside a reducing well. […]

[9] = 500 nM chir99021 and 500 nM roscovitine in combination
[10] = either drug alone, concentrations up to 5 μM

## Cc1c[nH]c(-c2cnc(NCCNc3ccc(C#N)cn3)nc2-c2ccc(Cl)cc2Cl)n1 [CHIR99021]
[1]; [9]
  percentage of eGFP-containing spines: reduced the percentage of eGFP-containing spines to that of wild type eGFP-tau
[1]; [10]
  percentage of eGFP-containing spines: neither drug alone, at concentrations up to 5 μM, lowered the percentage of eGFP-containing spines to control levels
[2]
  concentration that killed the neurons: above 5 μM
  drug concentration at which overt cell death was observed: exceeded 5 M
[3]
  increase in dendritic spines containing mislocalized eGFP-tau in G2-3 neurons: blocked
[4]
  postsynaptic deficits (mEPSC amplitude) caused by A53T αS transfection: completely reverse
[5]; listed as CHIR
  surface N-GluA1 synaptic localization (colocalization with PSD-95): strong colocalization of PSD-95 and N-GluA1 clusters is restored
[5]; listed as CHIR-99021
  surface N-GluA1 synaptic localization (colocalization with PSD-95): restored surface N-GluA1 synaptic localization

## CC[C@H](CO)Nc1nc(NCc2ccccc2)c2ncn(C(C)C)c2n1 [roscovitine]
[1]; [9]
  percentage of eGFP-containing spines: reduced the percentage of eGFP-containing spines to that of wild type eGFP-tau
[1]; [10]
  percentage of eGFP-containing spines: neither drug alone, at concentrations up to 5 μM, lowered the percentage of eGFP-containing spines to control levels

## H2N-GRKKRRQRRRPQDHGAEIVYKAPVVSGDTAPRHLSNVS ST-OH (H-GRKKRRQRRRPQDHGAEIVYKAPVVSGDTAPRHLSNVSST-OH) [Peptide 2]
[6]
  proportion of dendritic spines that contain tau (tau mis-sorting caused by P301L mutation): block mislocalization of tau
[6]; listed as AP peptide
  proportion of dendritic spines that contain tau (tau mis-sorting caused by P301L mutation): blocked tau mis-sorting; also recorded: significantly decreased
[6]; neurons expressing P301L mutant tau
  strength of effect on tau mis-sorting compared with WT peptide: stronger effect
[7]
  proportion of dendritic spines that contain tau, increase caused by Aβ oligomers: blocked
[7]; listed as AP peptide
  proportion of dendritic spines that contain tau, increase caused by Aβ oligomers: block tau mislocalization; also recorded: can block tau missorting to dendritic spines
[8]
  proportion of dendritic spines containing tau after mechanical stretches: blocked tau missorting to dendritic spines

## H2N-GRKKRRQRRRPQDHGAEIVYKEPVVSGDTEPRHLSNVS ST-OH (H-GRKKRRQRRRPQDHGAEIVYKEPVVSGDTEPRHLSNVSST-OH) [Peptide 3]
[6]
  proportion of dendritic spines that contain tau (tau mis-sorting caused by P301L mutation): did not block
[6]; listed as EP Peptide
  proportion of dendritic spines that contain tau (tau mis-sorting caused by P301L mutation): No decrease
[6]; listed as EP peptide
  proportion of dendritic spines that contain tau (tau mis-sorting caused by P301L mutation): did not block tau mis-sorting
